Reference: patent US20240115555A1, “METHODS OF TREATING CANCER USING B-RAF INHIBITORS AND IMMUNE CHECKPOINT INHIBITORS” (Genentech, Inc., priority 2015, published 2024)

How the values were obtained:
[1] = fumarate salt; cited from earlier work
PD-L1 = assay: Tissue samples stained for PD-L1 expression; format: in vivo, human; conditions: patient tissue samples, data not shown
Description: (§1) Tissue samples were stained for CD8+ T-cells as well as PD-L1 expression. Treatment with vemurafenib alone increased immune tumor CD8+ T-cell infiltration (data not shown). Treatment with either vemurafenib alone or vemurafenib in combination with atezolizumab increased expression of PD-L1 on tumor cells as well as tumor-infiltrating immune cells (data not shown).

CD8+ T-cells = assay: Tissue samples stained for CD8+ T-cells; format: in vivo, human; conditions: patient tissue samples, data not shown
Description: as §1

[2] = tested on: metastatic melanoma with the BRAFV600E mutation; conditions: cited from earlier work
[3] = tested on: unresectable or metastatic melanoma; conditions: two Phase III studies; cited from earlier work

O=C(c1ccc(F)c(F)c1Nc1ccc(I)cc1F)N1CC(O)([C@@H]2CCCCN2)C1 [Cobimetinib, (S)-(3,4-difluoro-2-(2-fluoro-4-iodophenylamino)phenyl)(3-hydroxy-3-(piperidin-2-yl)azetidin-1-yl)methanone]
solubility [1]: pH dependent solubility

CCCS(=O)(=O)Nc1ccc(F)c(C(=O)c2c[nH]c3ncc(-c4ccc(Cl)cc4)cc23)c1F [vemurafenib, propane-1-sulfonic acid {3-[5-(4-chlorophenyl)-1H-pyrrolo[2,3-b]pyridine-3-carbonyl]-2,4-difluoro-phenyl}-amide]
expression of PD-L1 on tumor cells as well as tumor-infiltrating immune cells (PD-L1): increased
immune tumor CD8+ T-cell infiltration (CD8+ T-cells): increased
improvement in PFS ([2]; compared with dacarbazine): 74%
reduction in the risk of death ([2]; compared with dacarbazine): 63%
hazard ratio for death ([2]; in favor of vemurafenib vs dacarbazine, median follow-up of 12.5 months): 0.70 (95% CI: 0.57, 0.87)
median OS ([2]; median follow-up of 12.5 months): 13.6 months
Response rates ([2]; previously untreated, BRAFV600E mutation): 48%
improvement in median OS ([2]; vs dacarbazine, median follow-up of 12.5 months): ~4 month

Ipilimumab: humanized immunoglobulin (Ig)G1 monoclonal antibody that blocks cytotoxic T-lymphocyte-associated antigen 4 (CTLA-4)
median PFS [3]: 2.8 months
overall response rate [3]: 10.9%
